Like-named read-outs stand apart in the source and are kept apart here.
What was measured:
PC-3 cells = test: In vitro GRPR specificity assay (uptake with or without NOTA-PEG2-RM26 block); type: cell-based, human
Description: After discarding the medium, the cells were washed with cold (4 °C) phosphate-buffered saline containing 1% w/v bovine serum albumin (PBS/BSA). The radiopeptides (Cf = 1 nM in 1 mL PBS/BSA) were added to all wells. A subset of wells was also treated with an excess of unlabeled GRPR-binding peptide NOTA-PEG2-RM26 (Bjäreback et al. [2025]) (Cf = 1 µM in 1 mL PBS/BSA) to block GRPR. After incubation for 1 h at 37 °C, the supernatant was removed, and the cells were washed and then collected by treating them with 1 M NaOH. The activity of the collected samples was measured with the gamma counter. This assay was performed in triplicate for each radiopeptide.

[1] = In vivo stability: intact radiopeptide in peripheral mouse blood 5 min pi, radio-HPLC; conditions: for Percentage of intact peptide, Entresto: blood 5 min pi
Description: Two animals per peptide were injected intravenously with a bolus of test radioligand (50 MBq, 2 nmol of peptide in 100 μL PBS/EtOH v/v 9:1) – Control group. To inhibit NEP, additional groups of two mice per compound were orally treated with 12 mg Entresto® (Novartis, Basel, Switzerland) 30 min before receiving the intravenous injection—Entresto group. Five minutes post-injection (pi), the animals were euthanized, and the blood was collected and immediately mixed with EDTA (0.1 mM, 40 μL) in Eppendorf tubes on ice. The mixture was spun at 2000 g for 10 min at 4 °C in an Eppendorf Centrifuge 5430 R (Eppendorf AG, Hamburg, Germany), and the plasma was collected and diluted with an equal volume of MeCN (4 °C). After a second centrifugation at 15,000 g and 4 °C for 10 min, the supernatant was collected in an Eppendorf tube and concentrated to 50–100 μL at 50 °C using a mild stream of N2. PBS was added to the samples to reach a final volume of 200 μL, and the solutions were filtered through a syringe filter (0.22 μm, 13 mm, VWR International, Radnor, USA). The filtered solution was analyzed by reversed-phase radio-HPLC to determine the percentage of intact peptides. The peak corresponding to the intact peptide was identified by injection of an aliquot of the labeling solution.

PC-3 xenografts = test: Biodistribution in mice bearing PC-3 xenografts; type: in vivo, Balb/c nu/nu mice; conditions: PC-3 xenografted mice, between 4 and 24 h pi
Description: (§1) Each mouse was xenografted with a subcutaneous injection of 8 × 10⁶ PC-3 cells in the right hind leg. After approximately 4 weeks, the animals were injected into the tail vein with 100 µL of radiopeptide (100 pmol—110–130 kBq, diluted in PBS/BSA). Four animals were used for each time point per peptide. […] At the determined time points, the mice were euthanized, organs were collected and weighed, and their activity content was measured in the gamma counter. Results were presented as the percentage of injected activity per gram (%IA/g) for the collected organs, and the percentage of injected activity (%IA) for the gastrointestinal tract (GI) and the carcass. […] Statistical analysis was performed with GraphPad Prism 10 using two way ANOVA with Tuckey’s or Šidák’a post hoc analysis.

[2] = Biodistribution in mice bearing PC-3 xenografts; type: in vivo, Balb/c nu/nu mice; conditions: mouse, total radioactivity; for tissue uptake at 4 h / tissue uptake dose at 4 h: 4 h pi; for tissue uptake at 24 h / tissue uptake dose at 24 h: 24 h pi
Description: as §1

[3] = Balb/c nu/nu, blood, iv, 100 pmol, PC-3 xenografted Balb/c nu/nu mice, iv 100 pmol, mean ± SD, n = 4, read-out: Blood activity uptake
[4] = Balb/c nu/nu, bone, iv, 100 pmol, PC-3 xenografted Balb/c nu/nu mice, iv 100 pmol, mean ± SD, n = 4, read-out: Bone activity uptake
[5] = Balb/c nu/nu, kidneys, iv, 100 pmol, PC-3 xenografted Balb/c nu/nu mice, iv 100 pmol, mean ± SD, n = 4, read-out: Kidneys activity uptake
[6] = Balb/c nu/nu, liver, iv, 100 pmol, PC-3 xenografted Balb/c nu/nu mice, iv 100 pmol, mean ± SD, n = 4, read-out: Liver activity uptake
[7] = Balb/c nu/nu, lungs, iv, 100 pmol, PC-3 xenografted Balb/c nu/nu mice, iv 100 pmol, mean ± SD, n = 4, read-out: Lungs activity uptake
[8] = Balb/c nu/nu, muscle, iv, 100 pmol, PC-3 xenografted Balb/c nu/nu mice, iv 100 pmol, mean ± SD, n = 4, read-out: Muscle activity uptake
[9] = Balb/c nu/nu, pancreas, iv, 100 pmol, PC-3 xenografted Balb/c nu/nu mice, iv 100 pmol, mean ± SD, n = 4, read-out: Pancreas activity uptake
[10] = Balb/c nu/nu, small intestine, iv, 100 pmol, PC-3 xenografted Balb/c nu/nu mice, iv 100 pmol, mean ± SD, n = 4, read-out: Small Int. activity uptake
[11] = Balb/c nu/nu, spleen, iv, 100 pmol, PC-3 xenografted Balb/c nu/nu mice, iv 100 pmol, mean ± SD, n = 4, read-out: Spleen activity uptake
[12] = Balb/c nu/nu, stomach, iv, 100 pmol, PC-3 xenografted Balb/c nu/nu mice, iv 100 pmol, mean ± SD, n = 4, read-out: Stomach activity uptake
[13] = Balb/c nu/nu, tumor, iv, 100 pmol, PC-3 xenografted Balb/c nu/nu mice, iv 100 pmol, mean ± SD, n = 4, read-out: Tumor activity uptake
[14] = carcass, PC-3 xenografted Balb/c nu/nu mice, iv 100 pmol, mean ± SD, n = 4, read-out: Body activity uptake
[15] = gastrointestinal tract with content, PC-3 xenografted Balb/c nu/nu mice, iv 100 pmol, mean ± SD, n = 4, read-out: GI activity uptake

For CC(C)C[C@H](NC(=O)C[C@H](O)[C@H](CC(C)C)NC(=O)[C@H](Cc1c[nH]cn1)NC(=O)CN(C)C(=O)[C@@H](NC(=O)[C@H](C)NC(=O)[C@](C)(Cc1c[nH]c2ccccc12)NC(=O)[C@H](CCC(N)=O)NC(=O)[C@@H](Cc1ccccc1)NC(=O)CN1CCC(NC(=O)COCCOCCNC(=O)CCC(C(=O)O)N2CCN(CC(=O)O)CCN(CC(=O)O)CCN(CC(=O)O)CC2)CC1)C(C)C)C(N)=O (stereo partly drawn) [[^177Lu]Lu-PKB2, metal not drawn], the “in vitro binding specificity” value (PC-3 cells; 1 nM radiopeptide, 1 h at 37 °C, block with 1 µM NOTA-PEG2-RM26, n = 3) was “GRPR-mediated activity uptake”, the “total cellular activity uptake (rank among the three radiopeptides)” value (PC-3 cells; 1 nM, 37 °C, n = 3) was “lowest” and the “Percentage of intact peptide, Entresto” value ([1]; NMRI mice, 12 mg Entresto orally 30 min before injection, recorded value n1) was 92%. For the same compound, the “Percentage of intact peptide, Entresto” value ([1]; NMRI mice, 12 mg Entresto orally 30 min before injection, recorded value n2) was 94%, the “Percentage of intact peptide, Entresto” value ([1]; healthy NMRI mice, 12 mg Entresto orally 30 min before iv injection (NEP inhibition), radio-HPLC, mean of n = 2) was 93% and the “Percentage of intact peptide, Control” value ([1]; healthy NMRI mice, iv 50 MBq, 2 nmol, peripheral blood 5 min pi, radio-HPLC, mean of n = 2) was 85% [81% - 90%]. The “tumor retention of activity” value (PC-3 xenografts) was “around 80%”, the tissue uptake at 2 h ([2]; Balb/c nu/nu, blood, iv, 100 pmol, PC-3 xenografted Balb/c nu/nu mice, iv 100 pmol, 2 h pi, mean ± SD, n = 4, read-out: Blood activity uptake) was 0.13 ± 0.05 %ID/g and the tissue uptake at 4 h [2, 3] was 0.07 ± 0.03 %ID/g. For the same compound, the tissue uptake at 24 h [2, 3] was 0.01 ± 0.01 %ID/g, the tissue uptake at 2 h ([2]; Balb/c nu/nu, blood, iv, PC-3 xenografted Balb/c nu/nu mice, iv 100 pmol, 2 h pi blocked (co-injected 100-fold molar excess NOTA-PEG2-RM26), mean ± SD, n = 3, read-out: Blood activity uptake) was 0.06 ± 0.02 %ID/g and the tissue uptake at 2 h ([2]; Balb/c nu/nu, blood, lungs, spleen, muscle, bone, iv, 100 pmol, PC-3 xenografted mice, 2 h pi, read-out: activity uptake in non-target organs (blood, lungs, spleen, muscle, and bone)) was under 0.6 %ID/g. It also gave a tissue uptake at 2 h ([2]; Balb/c nu/nu, bone, iv, 100 pmol, PC-3 xenografted Balb/c nu/nu mice, iv 100 pmol, 2 h pi, mean ± SD, n = 4, read-out: Bone activity uptake) of 0.13 ± 0.07 %ID/g, a tissue uptake at 4 h [2, 4] of 0.14 ± 0.05 %ID/g and a tissue uptake at 24 h [2, 4] of 0.09 ± 0.04 %ID/g. The tissue uptake at 2 h ([2]; Balb/c nu/nu, bone, iv, PC-3 xenografted Balb/c nu/nu mice, iv 100 pmol, 2 h pi blocked (co-injected 100-fold molar excess NOTA-PEG2-RM26), mean ± SD, n = 3, read-out: Bone activity uptake) was 0.13 ± 0.03 %ID/g, the tissue uptake dose ([2]; Balb/c nu/nu, gastrointestinal tract with content, iv, 100 pmol, PC-3 xenografted mice, all time points (2, 4, 24 h pi), read-out: activity uptake for the GI with content) was under 2 %ID and the tissue uptake at 2 h ([2]; Balb/c nu/nu, kidneys, iv, 100 pmol, PC-3 xenografted Balb/c nu/nu mice, iv 100 pmol, 2 h pi, mean ± SD, n = 4, read-out: Kidneys activity uptake) was 8.9 ± 2.5 %ID/g. It also gave a tissue uptake at 4 h [2, 5] of 9.5 ± 2.1 %ID/g, a tissue uptake at 24 h [2, 5] of 5.5 ± 0.6 %ID/g and a tissue uptake at 2 h ([2]; Balb/c nu/nu, kidneys, iv, PC-3 xenografted Balb/c nu/nu mice, iv 100 pmol, 2 h pi blocked (co-injected 100-fold molar excess NOTA-PEG2-RM26), mean ± SD, n = 3, read-out: Kidneys activity uptake) of 7.6 ± 1.2 %ID/g. The tissue uptake at 2 h ([2]; Balb/c nu/nu, liver, iv, 100 pmol, PC-3 xenografted Balb/c nu/nu mice, iv 100 pmol, 2 h pi, mean ± SD, n = 4, read-out: Liver activity uptake) was 0.24 ± 0.05 %ID/g, the tissue uptake at 4 h [2, 6] was 0.2 ± 0.03 %ID/g and the tissue uptake at 24 h [2, 6] was 0.14 ± 0.02 %ID/g. The tissue uptake at 2 h ([2]; Balb/c nu/nu, liver, iv, PC-3 xenografted Balb/c nu/nu mice, iv 100 pmol, 2 h pi blocked (co-injected 100-fold molar excess NOTA-PEG2-RM26), mean ± SD, n = 3, read-out: Liver activity uptake) was 0.2 ± 0.02 %ID/g, the tissue uptake at 4 h [2, 7] was 0.3 ± 0.2 %ID/g and the tissue uptake at 24 h [2, 7] was 0.07 ± 0.01 %ID/g. The tissue uptake at 2 h ([2]; Balb/c nu/nu, lungs, iv, PC-3 xenografted Balb/c nu/nu mice, iv 100 pmol, 2 h pi blocked (co-injected 100-fold molar excess NOTA-PEG2-RM26), mean ± SD, n = 3, read-out: Lungs activity uptake) was 0.21 ± 0.03 %ID/g, the tissue uptake at 2 h ([2]; Balb/c nu/nu, muscle, iv, 100 pmol, PC-3 xenografted Balb/c nu/nu mice, iv 100 pmol, 2 h pi, mean ± SD, n = 4, read-out: Muscle activity uptake) was 0.07 ± 0.06 %ID/g and the tissue uptake at 4 h [2, 8] was 0.05 ± 0.02 %ID/g. The tissue uptake at 24 h [2, 8] was 0.02 ± 0.01 %ID/g, the tissue uptake at 2 h ([2]; Balb/c nu/nu, muscle, iv, PC-3 xenografted Balb/c nu/nu mice, iv 100 pmol, 2 h pi blocked (co-injected 100-fold molar excess NOTA-PEG2-RM26), mean ± SD, n = 3, read-out: Muscle activity uptake) was 0.04 ± 0.01 %ID/g and the tissue uptake at 2 h ([2]; Balb/c nu/nu, pancreas, iv, 100 pmol, PC-3 xenografted Balb/c nu/nu mice, iv 100 pmol, 2 h pi, mean ± SD, n = 4, read-out: Pancreas activity uptake) was 7.3 ± 3 %ID/g. The tissue uptake at 4 h [2, 9] was 2.9 ± 1 %ID/g, the tissue uptake at 24 h [2, 9] was 0.43 ± 0.09 %ID/g and the tissue uptake at 2 h ([2]; Balb/c nu/nu, small intestine, iv, 100 pmol, PC-3 xenografted Balb/c nu/nu mice, iv 100 pmol, 2 h pi, mean ± SD, n = 4, read-out: Small Int. activity uptake) was 0.8 ± 0.5 %ID/g. The tissue uptake at 4 h [2, 10] was 0.5 ± 0.2 %ID/g, the tissue uptake at 24 h [2, 10] was 0.07 ± 0.04 %ID/g and the tissue uptake at 2 h ([2]; Balb/c nu/nu, small intestine, iv, PC-3 xenografted Balb/c nu/nu mice, iv 100 pmol, 2 h pi blocked (co-injected 100-fold molar excess NOTA-PEG2-RM26), mean ± SD, n = 3, read-out: Small Int. activity uptake) was 0.3 ± 0.1 %ID/g. The tissue uptake at 2 h ([2]; Balb/c nu/nu, spleen, iv, 100 pmol, PC-3 xenografted Balb/c nu/nu mice, iv 100 pmol, 2 h pi, mean ± SD, n = 4, read-out: Spleen activity uptake) was 0.15 ± 0.07 %ID/g, the tissue uptake at 4 h [2, 11] was 0.15 ± 0.06 %ID/g and the tissue uptake at 24 h [2, 11] was 0.11 ± 0.04 %ID/g. For the same compound, the tissue uptake at 2 h ([2]; Balb/c nu/nu, spleen, iv, PC-3 xenografted Balb/c nu/nu mice, iv 100 pmol, 2 h pi blocked (co-injected 100-fold molar excess NOTA-PEG2-RM26), mean ± SD, n = 3, read-out: Spleen activity uptake) was 0.12 ± 0.04 %ID/g, the tissue uptake at 4 h [2, 12] was 1.3 ± 0.2 %ID/g and the tissue uptake at 24 h [2, 12] was 0.14 ± 0.07 %ID/g. It also gave a tissue uptake at 2 h ([2]; Balb/c nu/nu, stomach, iv, PC-3 xenografted Balb/c nu/nu mice, iv 100 pmol, 2 h pi blocked (co-injected 100-fold molar excess NOTA-PEG2-RM26), mean ± SD, n = 3, read-out: Stomach activity uptake) of 0.36 ± 0.07 %ID/g, a tissue uptake at 2 h ([2]; Balb/c nu/nu, stomach, small intestines, iv, 100 pmol, PC-3 xenografted mice, 2 h pi, read-out: activity uptake in the stomach and small intestines) of under 2.5 %ID/g and a tissue uptake at 2 h ([2]; Balb/c nu/nu, tumor, iv, 100 pmol, PC-3 xenografted Balb/c nu/nu mice, iv 100 pmol, 2 h pi, mean ± SD, n = 4, read-out: Tumor activity uptake) of 15.8 ± 3.7 %ID/g. It also gave a tissue uptake at 4 h [2, 13] of 15.3 ± 1.4 %ID/g, a tissue uptake at 24 h [2, 13] of 12.1 ± 1.3 %ID/g and a tissue uptake at 2 h ([2]; Balb/c nu/nu, tumor, iv, PC-3 xenografted Balb/c nu/nu mice, iv 100 pmol, 2 h pi blocked (co-injected 100-fold molar excess NOTA-PEG2-RM26), mean ± SD, n = 3, read-out: Tumor activity uptake) of 3.1 ± 0.9 %ID/g. It also gave a tissue uptake dose at 2 h ([2]; carcass, PC-3 xenografted Balb/c nu/nu mice, iv 100 pmol, 2 h pi, mean ± SD, n = 4, read-out: Body activity uptake) of 1.8 ± 1.3 %ID, a tissue uptake dose at 4 h [2, 14] of 2.3 ± 0.8 %ID and a tissue uptake dose at 24 h [2, 14] of 0.5 ± 0.1 %ID. It also gave a tissue uptake dose at 2 h ([2]; gastrointestinal tract with content, PC-3 xenografted Balb/c nu/nu mice, iv 100 pmol, 2 h pi, mean ± SD, n = 4, read-out: GI activity uptake) of 1.5 ± 0.4 %ID, a tissue uptake dose at 4 h [2, 15] of 0.7 ± 0.2 %ID and a tissue uptake dose at 24 h [2, 15] of 0.3 ± 0.2 %ID.

— article PMC12615863, “Improving GRPR-targeting peptides for radiotheranostics application: insights from chelator modifications and α-methyl-L tryptophan substitution” (EJNMMI Radiopharmacy and Chemistry, 2025)
